Data from patent US12570671B2 (BRISTOL-MYERS SQUIBB COMPANY, priority 2020, dated 2026).

Experiments:
Ikaros = Ikaros (Homo sapiens, UniProt Q13422+Q96SW2); experiment: Helios Cellular Degradation Assay (Ikaros readout); assay type: cell-based; set-up: endogenous in cells; host or cells: Jurkat; details: Jurkat cells, 72 h incubation, Ikaros-Alexa488 antibody staining, flow cytometry; read-out: Ikaros Jurkat IC50
Procedure: (§1) Jurkat cells were plated at 80,000 cells/well in 40 μL RPMI+10% FBS in a 384 well cell culture plate prior to using acoustic dispensing technology for adding compound of interest. Cell cultures were incubated for 72 h at 37° C. and 5% C02. In order to facilitate analysis, cell cultures were spun down at 200 rpm for 5 min and the supernatant was discarded. After shaking the plate to dislodge the cell pellet, cells were resuspended in 50 μL of Fixation Buffer (eBioScience FoxP3 buffer set 00-5523-00) for 60 min at room temperature. After centrifuging and discarding the supernatant, cells were permeabilized with 50 μL of Permeabilization buffer (eBioScience FoxP3 buffer set 00-5523-00) for 10 min at room temperature. Following permeabilization, cells were spun down and the supernatant was replaced with 20 μL fluorescently labelled antibodies against Helios, Ikaros and Aiolos or corresponding Isotype controls in 1× Permeabilization buffer (Ikaros-Alexa488 [Biolegend, Cat #368408, 1:50], Helios-PE [CST, Cat #29360, 1:50], Aiolos-Alexa647 [Biolegend, Cat #371106Biolegend, 1:25]) and staining reactions were incubated for 1 h at room temperature; protected from light. Subsequently, 30 μL of 1× Permeabilization buffer was added prior to centrifuging the cells and discarding the supernatant. Stained cells were resuspended in 25 μL of flow cytometry staining buffer (PBS+0.2% BSA) and analyzed using an Intellicyt Ique Plus flow cytometer.

Helios = Helios (Homo sapiens, UniProt Q96SW2+Q9UKS7); experiment: Helios Cellular Degradation Assay (Helios readout); assay type: cell-based; set-up: endogenous in cells; host or cells: Jurkat; details: Jurkat cells, 72 h incubation, Helios-PE antibody staining, flow cytometry; read-out: Helios Jurkat IC50
Helios, sequence (Q9UKS7 whole entry): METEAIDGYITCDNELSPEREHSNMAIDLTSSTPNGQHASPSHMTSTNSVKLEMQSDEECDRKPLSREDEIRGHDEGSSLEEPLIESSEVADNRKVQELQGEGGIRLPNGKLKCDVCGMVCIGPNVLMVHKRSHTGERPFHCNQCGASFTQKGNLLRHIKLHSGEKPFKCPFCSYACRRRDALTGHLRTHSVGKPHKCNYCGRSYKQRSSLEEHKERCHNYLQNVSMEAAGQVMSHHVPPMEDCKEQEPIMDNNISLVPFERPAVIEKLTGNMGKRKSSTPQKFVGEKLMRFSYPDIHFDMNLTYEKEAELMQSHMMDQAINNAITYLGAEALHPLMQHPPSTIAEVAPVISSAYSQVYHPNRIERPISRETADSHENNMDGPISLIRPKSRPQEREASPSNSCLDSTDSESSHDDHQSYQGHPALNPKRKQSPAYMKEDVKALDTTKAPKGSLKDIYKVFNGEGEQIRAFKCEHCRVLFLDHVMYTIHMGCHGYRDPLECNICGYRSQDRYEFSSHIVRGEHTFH
Helios, sequence (Q96SW2 whole entry): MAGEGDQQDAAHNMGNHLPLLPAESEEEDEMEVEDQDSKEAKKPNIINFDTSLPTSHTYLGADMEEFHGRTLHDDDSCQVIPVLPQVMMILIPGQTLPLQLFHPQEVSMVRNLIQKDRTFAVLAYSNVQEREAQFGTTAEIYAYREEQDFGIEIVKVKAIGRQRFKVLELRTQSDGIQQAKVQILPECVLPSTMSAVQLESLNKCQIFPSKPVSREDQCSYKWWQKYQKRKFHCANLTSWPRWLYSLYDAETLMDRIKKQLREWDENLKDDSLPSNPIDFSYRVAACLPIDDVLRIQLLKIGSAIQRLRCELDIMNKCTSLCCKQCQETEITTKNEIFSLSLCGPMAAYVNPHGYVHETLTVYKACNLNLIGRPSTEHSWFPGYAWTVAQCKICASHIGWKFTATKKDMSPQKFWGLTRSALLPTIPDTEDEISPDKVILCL
Helios, sequence (Q16531 whole entry partner): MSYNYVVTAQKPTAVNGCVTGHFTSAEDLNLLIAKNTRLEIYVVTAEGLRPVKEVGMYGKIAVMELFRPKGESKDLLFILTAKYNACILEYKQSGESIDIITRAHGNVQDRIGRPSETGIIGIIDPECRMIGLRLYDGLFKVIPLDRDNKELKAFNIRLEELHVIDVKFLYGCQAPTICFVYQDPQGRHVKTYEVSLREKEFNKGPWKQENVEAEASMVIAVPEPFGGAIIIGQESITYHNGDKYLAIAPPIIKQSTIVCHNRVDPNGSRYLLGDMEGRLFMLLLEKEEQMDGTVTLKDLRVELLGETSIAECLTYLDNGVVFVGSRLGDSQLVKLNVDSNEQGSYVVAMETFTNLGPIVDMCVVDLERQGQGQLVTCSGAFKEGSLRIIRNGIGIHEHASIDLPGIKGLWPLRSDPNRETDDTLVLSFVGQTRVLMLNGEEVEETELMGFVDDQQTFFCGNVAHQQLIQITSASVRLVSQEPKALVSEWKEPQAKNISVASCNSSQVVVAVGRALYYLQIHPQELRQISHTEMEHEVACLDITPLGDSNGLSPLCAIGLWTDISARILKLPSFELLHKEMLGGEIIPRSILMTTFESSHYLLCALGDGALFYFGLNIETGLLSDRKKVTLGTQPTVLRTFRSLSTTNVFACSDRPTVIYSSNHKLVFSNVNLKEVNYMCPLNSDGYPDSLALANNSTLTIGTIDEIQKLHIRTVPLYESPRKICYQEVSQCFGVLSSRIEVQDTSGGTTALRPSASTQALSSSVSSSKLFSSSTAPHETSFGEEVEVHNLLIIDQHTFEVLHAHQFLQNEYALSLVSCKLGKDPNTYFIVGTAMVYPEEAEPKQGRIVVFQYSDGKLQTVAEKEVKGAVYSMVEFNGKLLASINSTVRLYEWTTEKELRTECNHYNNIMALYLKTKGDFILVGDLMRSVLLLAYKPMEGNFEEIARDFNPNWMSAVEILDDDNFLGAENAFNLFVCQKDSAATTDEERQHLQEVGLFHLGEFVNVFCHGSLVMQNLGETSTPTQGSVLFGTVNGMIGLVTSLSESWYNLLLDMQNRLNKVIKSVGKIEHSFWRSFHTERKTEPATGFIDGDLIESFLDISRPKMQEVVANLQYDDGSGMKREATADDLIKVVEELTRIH
Procedure: as §1

Ikaros, sequence (Q13422 whole entry): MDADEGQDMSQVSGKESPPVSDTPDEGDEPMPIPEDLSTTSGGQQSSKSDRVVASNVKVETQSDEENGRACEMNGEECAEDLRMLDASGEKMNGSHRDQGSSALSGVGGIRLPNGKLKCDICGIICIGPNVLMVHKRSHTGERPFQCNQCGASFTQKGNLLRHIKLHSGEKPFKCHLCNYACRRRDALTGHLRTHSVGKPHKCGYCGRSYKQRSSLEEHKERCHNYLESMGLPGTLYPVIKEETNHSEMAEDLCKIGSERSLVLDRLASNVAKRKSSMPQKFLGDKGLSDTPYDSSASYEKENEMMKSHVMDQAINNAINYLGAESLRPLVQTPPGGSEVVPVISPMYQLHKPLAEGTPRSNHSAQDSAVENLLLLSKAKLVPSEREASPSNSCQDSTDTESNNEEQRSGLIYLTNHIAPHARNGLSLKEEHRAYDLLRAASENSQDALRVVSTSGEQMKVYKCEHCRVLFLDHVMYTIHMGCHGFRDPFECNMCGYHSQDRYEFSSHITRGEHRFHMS
Ikaros, sequence (Q96SW2 whole entry): as the sequence (Q96SW2 whole entry) above
Ikaros, sequence (Q16531 whole entry partner): as the sequence (Q16531 whole entry partner) above

| SMILES | DC50 (Ikaros) [nM] | DC50 (Helios) [nM] |
| --- | --- | --- |
| Nc1nc(-c2ccc3c(c2)CN(C2CCC(=O)NC2=O)C3=O)cc2[nH]ccc(=O)c12 (centres unmarked) [Example 47, 3-[5-(5-Amino-4-oxo-1,4-dihydro-1,6-naphthyridin-7-yl)-1-oxo-2,3-dihydro-1H-isoindol-2-yl]piperidine-2,6-dione] | > 20000 | 220 |
| CC(=O)Nc1nc(-c2ccc3c(c2)CN(C2CCC(=O)NC2=O)C3=O)cc2ccccc12 (centres unmarked) [Example 48, N-{3-[2-(2,6-Dioxopiperidin-3-yl)-1-oxo-2,3-dihydro-1H-isoindol-5-yl]isoquinolin-1-yl}acetamide] | > 20000 | 90 |
| CN(C)c1nc(-c2ccc3c(c2)CN(C2CCC(=O)NC2=O)C3=O)cc2ccccc12 (centres unmarked) [Example 49, 3-{5-[1-(Dimethylamino)isoquinolin-3-yl]-1-oxo-2,3-dihydro-1H-isoindol-2-yl}piperidine-2,6-dione] | > 20000 | 37 |
| CNc1nc(-c2ccc3c(c2)CN(C2CCC(=O)NC2=O)C3=O)cc2ccccc12 (centres unmarked) [Example 50, 3-{5-[1-(Methylamino)isoquinolin-3-yl]-1-oxo-2,3-dihydro-1H-isoindol-2-yl}piperidine-2,6-dione] | > 20000 | 11 |
| CNc1nc(-c2ccc3c(c2)CN(C2CCC(=O)NC2=O)C3=O)cc2ncccc12 (centres unmarked) [Example 51, 3-{5-[5-(Methylamino)-1,6-naphthyridin-7-yl]-1-oxo-2,3-dihydro-1H-isoindol-2-yl}piperidine-2,6-dione] | > 20000 | 26 |
| CC(=O)N(C)c1nc(-c2ccc3c(c2)CN(C2CCC(=O)NC2=O)C3=O)cc2ccccc12 (centres unmarked) [Example 52, N-{3-[2-(2,6-Dioxopiperidin-3-yl)-1-oxo-2,3-dihydro-1H-isoindol-5-yl]isoquinolin-1-yl}-N-methylacetamide] | > 20000 | 210 |
| Nc1cc2cccnc2c(-c2ccc3c(c2)CN(C2CCC(=O)NC2=O)C3=O)n1 (centres unmarked) [Example 53, 3-[5-(6-Amino-1,7-naphthyridin-8-yl)-1-oxo-2,3-dihydro-1H-isoindol-2-yl]piperidine-2,6-dione] | > 20000 | 85 |
| COc1cccc2c(-c3ccc4c(c3)CN(C3CCC(=O)NC3=O)C4=O)nc(N)cc12 (centres unmarked) [Example 54, 3-[5-(3-Amino-5-methoxyisoquinolin-1-yl)-1-oxo-2,3-dihydro-1H-isoindol-2-yl]piperidine-2,6-dione] | 5000 | 40 |
| CC(=O)N1CCN(c2nc(-c3ccc4c(c3)CN(C3CCC(=O)NC3=O)C4=O)nc3ncccc23)CC1 (centres unmarked) [Example 55, 3-(5-(4-(4-acetylpiperazin-1-yl)pyrido[2,3-d]pyrimidin-2-yl)-1-oxoisoindolin-2-yl)piperidine-2,6-dione] | 8100 | 1000 |
| O=C1CCC(N2Cc3cc(-c4ncc(Br)c5cc[nH]c45)ccc3C2=O)C(=O)N1 (centres unmarked) [Example 56, 3-(5-{4-bromo-1H-pyrrolo[2,3-c]pyridin-7-yl}-1-oxo-2,3-dihydro-1H-isoindol-2-yl) piperidine-2,6-dione] | 49 | 27 |
| Nc1nc(-c2ccc3c(c2)CN(C2CCC(=O)NC2=O)C3=O)cc2ncccc12 (centres unmarked) [Example 57, 3-[5-(5-amino-1,6-naphthyridin-7-yl)-1-oxo-2,3-dihydro-1H-isoindol-2-yl]piperidine-2,6-dione] | > 20000 | 7 |
| COc1ccc2c(-c3ccc4c(c3)CN(C3CCC(=O)NC3=O)C4=O)nc(OC)cc2c1 (centres unmarked) [Example 58, 3-[5-(3,6-dimethoxyisoquinolin-1-yl)-1-oxo-2,3-dihydro-1H-isoindol-2-yl]piperidine-2,6-dione] | 9 | 1 |
| O=Cc1cc2c(-c3ccc4c(c3)CN(C3CCC(=O)NC3=O)C4=O)nccc2s1 (centres unmarked) [Example 60, 4-[2-(2,6-dioxopiperidin-3-yl)-1-oxo-2,3-dihydro-1H-isoindol-5-yl]thieno[3,2-c]pyridine-2-carbaldehyde] | 160 | 15 |
| Cc1cc(=O)c2ccc(-c3ccc4c(c3)CN(C3CCC(=O)NC3=O)C4=O)nc2o1 (centres unmarked) [Example 62, 3-(5-{2-methyl-4-oxo-4H-pyrano[2,3-b]pyridin-7-yl}-1-oxo-2,3-dihydro-1H-isoindol-2-yl)piperidine-2,6-dione] | > 20000 | > 20000 |
| O=C1CCC(N2Cc3cc(-c4nccc5cccnc45)ccc3C2=O)C(=O)N1 (centres unmarked) [Example 64, 3-[5-(1,7-naphthyridin-8-yl)-1-oxo-2,3-dihydro-1H-isoindol-2-yl]piperidine-2,6-dione] | > 20000 | > 20000 |
| Nc1cn2nc(-c3ccc4c(c3)CN(C3CCC(=O)NC3=O)C4=O)ccc2n1 (centres unmarked) [Example 65, 3-(5-{2-aminoimidazo[1,2-b]pyridazin-6-yl}-1-oxo-2,3-dihydro-1H-isoindol-2-yl)piperidine-2,6-dione] | > 20000 | > 20000 |

| SMILES | DC50 (Ikaros) [nM] | DC50 (Helios) [nM] |
| --- | --- | --- |
| O=C1CCC(N2Cc3cc(-c4nccc5ccccc45)ccc3C2=O)C(=O)N1 (centres unmarked) [Example 66, 3-[5-(isoquinolin-1-yl)-1-oxo-2,3-dihydro-1H-isoindol-2-yl]piperidine-2,6-dione] | 25 | 6 |
| O=C1CCC(N2Cc3cc(-c4cc5ccccc5cn4)ccc3C2=O)C(=O)N1 (centres unmarked) [Example 67, 3-[5-(isoquinolin-3-yl)-1-oxo-2,3-dihydro-1H-isoindol-2-yl]piperidine-2,6-dione] | 3000 | 42 |
| Nc1nccc(-c2ccc3c(c2)CN(C2CCC(=O)NC2=O)C3=O)n1 (centres unmarked) [Example 70, 3-(5-(2-aminopyrimidin-4-yl)-1-oxoisoindolin-2-yl)piperidine-2,6-dione] | > 20000 | 480 |
| O=C1CCC(N2Cc3cc(-c4nccc(-c5ccccc5)n4)ccc3C2=O)C(=O)N1 (centres unmarked) [Example 71, 3-(1-oxo-5-(4-phenylpyrimidin-2-yl)isoindolin-2-yl)piperidine-2,6-dione] | > 20000 | 75 |
| O=C1CCC(N2Cc3cc(-c4nccc(-c5cccnc5)n4)ccc3C2=O)C(=O)N1 (centres unmarked) [Example 72, 3-(1-oxo-5-(4-(pyridin-3-yl)pyrimidin-2-yl)isoindolin-2-yl)piperidine-2,6-dione] | > 20000 | > 20000 |
| Nc1nc(-c2ccccc2)nc(-c2ccc3c(c2)CN(C2CCC(=O)NC2=O)C3=O)n1 (centres unmarked) [Example 73, 3-(5-(4-amino-6-phenyl-1,3,5-triazin-2-yl)-1-oxoisoindolin-2-yl)piperidine-2,6-dione] | 450 | 67 |
| O=C1CCC(N2Cc3cc(-c4cc(-c5ccccc5)ccn4)ccc3C2=O)C(=O)N1 (centres unmarked) [Example 74, 3-(1-oxo-5-(4-phenylpyridin-2-yl)isoindolin-2-yl)piperidine-2,6-dione] | 34 | 32 |
| O=C1CCC(N2Cc3cc(-c4nccc(-c5ccccn5)n4)ccc3C2=O)C(=O)N1 (centres unmarked) [Example 75, 3-(1-oxo-5-(4-(pyridin-2-yl)pyrimidin-2-yl)isoindolin-2-yl)piperidine-2,6-dione] | > 20000 | 1200 |
| N#Cc1ccnnc1-c1ccc2c(c1)CN(C1CCC(=O)NC1=O)C2=O (centres unmarked) [Example 76, 3-(2-(2,6-dioxopiperidin-3-yl)-1-oxoisoindolin-5-yl)pyridazine-4-carbonitrile] | > 20000 | > 20000 |
| N#Cc1ccc(-c2ccc3c(c2)CN(C2CCC(=O)NC2=O)C3=O)nn1 (centres unmarked) [Example 77, 6-[2-(2,6-Dioxopiperidin-3-yl)-1-oxo-2,3-dihydro-1H-isoindol-5-yl]pyridazine-3-carbonitrile] | > 20000 | > 20000 |
| NC(=O)c1ccc(-c2ccc3c(c2)CN(C2CCC(=O)NC2=O)C3=O)nn1 (centres unmarked) [Example 78, 6-[2-(2,6-dioxopiperidin-3-yl)-1-oxo-2,3-dihydro-1H-isoindol-5-yl]pyridazine-3-carboxamide] | > 20000 | 2800 |
| Nc1ccc([N+](=O)[O-])c(-c2ccc3c(c2)CN(C2CCC(=O)NC2=O)C3=O)n1 (centres unmarked) [Example 79, 3-[5-(6-Amino-3-nitropyridin-2-yl)-1-oxo-2,3-dihydro-1H-isoindol-2-yl]piperidine-2,6-dione] | > 20000 | > 20000 |
| N#Cc1cnc(-c2ccc3c(c2)CN(C2CCC(=O)NC2=O)C3=O)nc1N (centres unmarked) [Example 80, 4-Amino-2-[2-(2,6-dioxopiperidin-3-yl)-1-oxo-2,3-dihydro-1H-isoindol-5-yl]pyrimidine-5-carbonitrile] | > 20000 | 320 |
| NC(=O)c1cnc(-c2ccc3c(c2)CN(C2CCC(=O)NC2=O)C3=O)nc1N (centres unmarked) [Example 81, 4-amino-2-[2-(2,6-dioxopiperidin-3-yl)-1-oxo-2,3-dihydro-1H-isoindol-5-yl]pyrimidine-5-carboxamide] | > 20000 | 3900 |
| Nc1nc(-c2ccc3c(c2)CN([C@H]2CCC(=O)NC2=O)C3=O)cc2ccccc12 [Example 82, (3S)-3-[5-(1-aminoisoquinolin-3-yl)-1-oxo-2,3-dihydro-1H-isoindol-2-yl]piperidine-2,6-dione] | ≥ 20000 | 4 |
